Measured values: paper PMC6134994, “Discovery of Potent Disheveled/Dvl Inhibitors Using Virtual Screening Optimized With NMR-Based Docking Performance Index” (Frontiers in Pharmacology, 2018)

Columns and labels:
[1] = target: T1, mZO1-PDZ1 (mouse ZO-1 first PDZ domain) (Mus musculus, UniProt P39447); assay: NMR chemical shift perturbation (1H-15N HSQC)
T1 construct: gene Tjp1
T1 sequence (P39447 18-110): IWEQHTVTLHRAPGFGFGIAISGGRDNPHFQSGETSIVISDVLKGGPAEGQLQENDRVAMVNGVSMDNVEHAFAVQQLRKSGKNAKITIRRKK

[2] = target: T2, hDvl1-PDZ (human Dvl1 PDZ domain) (Homo sapiens, UniProt O14640, C338A/W339T); assay: NMR chemical shift perturbation at […] equivalents (averaged normalized shift); assay type: binding
T2 construct: PDZ domain, residues 246–340
T2 sequence (O14640 246-340 C338A/W339T): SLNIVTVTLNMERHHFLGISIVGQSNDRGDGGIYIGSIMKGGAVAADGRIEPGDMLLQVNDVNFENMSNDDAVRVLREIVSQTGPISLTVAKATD

Δδave/ppm [2] [ppm] | SMILES | NMR chemical shift perturbation (1H-15N HSQC) [1]
– | O=C(Cc1ccccc1)Nc1cccc(C(=O)Nc2ccccc2C(=O)O)c1 [CalBioChem-322338] | residues surrounding the canonical binding site of mZO1-PDZ1 showed substantial CSP upon CalBioChem-322338
0.044 | CC(=O)C(=NNc1cccc(S(=O)(=O)Nc2ccccc2C(=O)O)c1)C(=O)c1ccccc1 [NPL-3009] | –
